Measurements: ChEMBL document CHEMBL5523762, “Discovery of Potent and Selective G9a Degraders for the Treatment of Pancreatic Cancer” (J Med Chem, 2024)
Values belong to the molecule of their own block, whether it stands above or below them. Activity calls are given as the source filed them. No cut-off for these calls is given here.

What was measured:
[1] = target: T1, Histone-lysine N-methyltransferase EHMT2 (Homo sapiens) (UniProt Q96KQ7); test: Inhibition of N-terminal GST tagged human recombinant G9a (785 to 1210 residues) expressed in Escherichia coli using H3(1 to 21)K9me1 and SAM as substrates incubated for 1 hr by HTRF assay
T1 sequence (whole entry): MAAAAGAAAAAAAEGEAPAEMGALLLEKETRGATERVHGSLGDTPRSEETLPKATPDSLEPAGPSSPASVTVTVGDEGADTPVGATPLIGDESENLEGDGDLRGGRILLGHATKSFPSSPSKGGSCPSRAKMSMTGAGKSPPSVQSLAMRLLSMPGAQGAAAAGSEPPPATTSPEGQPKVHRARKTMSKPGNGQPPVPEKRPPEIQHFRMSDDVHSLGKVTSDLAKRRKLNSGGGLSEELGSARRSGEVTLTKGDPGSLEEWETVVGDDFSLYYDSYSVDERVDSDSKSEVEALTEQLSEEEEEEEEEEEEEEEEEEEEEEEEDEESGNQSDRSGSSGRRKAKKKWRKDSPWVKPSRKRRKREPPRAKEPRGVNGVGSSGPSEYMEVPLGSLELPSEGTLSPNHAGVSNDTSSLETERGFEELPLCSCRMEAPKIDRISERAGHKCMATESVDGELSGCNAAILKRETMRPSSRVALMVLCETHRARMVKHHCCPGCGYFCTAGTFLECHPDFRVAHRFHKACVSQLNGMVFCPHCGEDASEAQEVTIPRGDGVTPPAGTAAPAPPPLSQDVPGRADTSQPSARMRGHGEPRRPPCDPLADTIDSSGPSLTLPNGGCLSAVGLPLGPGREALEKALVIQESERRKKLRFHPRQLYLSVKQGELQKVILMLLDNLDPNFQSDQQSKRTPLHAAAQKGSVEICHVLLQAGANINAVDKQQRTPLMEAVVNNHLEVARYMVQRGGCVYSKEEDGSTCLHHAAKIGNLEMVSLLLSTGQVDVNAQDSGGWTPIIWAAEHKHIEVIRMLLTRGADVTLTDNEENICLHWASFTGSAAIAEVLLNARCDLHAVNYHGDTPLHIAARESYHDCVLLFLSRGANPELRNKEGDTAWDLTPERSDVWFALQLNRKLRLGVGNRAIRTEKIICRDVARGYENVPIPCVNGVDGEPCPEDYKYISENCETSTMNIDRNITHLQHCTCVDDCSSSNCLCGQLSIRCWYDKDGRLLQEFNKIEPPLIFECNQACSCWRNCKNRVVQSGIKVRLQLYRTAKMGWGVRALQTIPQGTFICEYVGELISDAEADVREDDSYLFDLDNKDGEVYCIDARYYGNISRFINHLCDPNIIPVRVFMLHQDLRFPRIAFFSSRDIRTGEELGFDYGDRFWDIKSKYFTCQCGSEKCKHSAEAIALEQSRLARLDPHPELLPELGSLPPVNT

[2] = target: T2, Protein cereblon/Histone-lysine N-methyltransferase EHMT2 (Homo sapiens, UniProt Q96KQ7+Q96SW2); test: PROTAC activity at CRBN/G9a in human PANC-1 cells assessed as induction of G9a degradation at 0.1 uM measured after 24 hrs by Western blot analysis; format: cell-based
[3] = target: T1, Histone-lysine N-methyltransferase EHMT2 (Homo sapiens); test: Induction of G9a degradation in human PANC-1 cells assessed as reduction in G9a protein level at 10 uM by Western blot analysis; format: cell-based
[4] = target: T1, Histone-lysine N-methyltransferase EHMT2 (Homo sapiens); test: Induction of G9a degradation in human PANC-1 cells assessed as reduction in G9a protein level at 10 uM in presence of 1 uM UNC0638 by Western blot analysis; format: cell-based
[5] = target: T1, Histone-lysine N-methyltransferase EHMT2 (Homo sapiens); test: Induction of G9a degradation in human PANC-1 cells assessed as reduction in G9a protein level at 50 uM measured at 16 hrs by Western blot analysis; format: cell-based
[6] = target: T2, Protein cereblon/Histone-lysine N-methyltransferase EHMT2; test: PROTAC activity at CRBN/G9a in human PANC-1 cells assessed as induction of G9a degradation at 0.1 to 1 uM measured after 24 hrs by Western blot analysis; format: cell-based; details: dose 0.1-1 µM
[7] = target: T2, Protein cereblon/Histone-lysine N-methyltransferase EHMT2; test: PROTAC activity at CRBN/G9a in human PANC-1 cells assessed as induction of G9a degradation at 1 uM by Western blot analysis; format: cell-based

T2 sequence (Q96SW2 whole entry partner, one chain of several): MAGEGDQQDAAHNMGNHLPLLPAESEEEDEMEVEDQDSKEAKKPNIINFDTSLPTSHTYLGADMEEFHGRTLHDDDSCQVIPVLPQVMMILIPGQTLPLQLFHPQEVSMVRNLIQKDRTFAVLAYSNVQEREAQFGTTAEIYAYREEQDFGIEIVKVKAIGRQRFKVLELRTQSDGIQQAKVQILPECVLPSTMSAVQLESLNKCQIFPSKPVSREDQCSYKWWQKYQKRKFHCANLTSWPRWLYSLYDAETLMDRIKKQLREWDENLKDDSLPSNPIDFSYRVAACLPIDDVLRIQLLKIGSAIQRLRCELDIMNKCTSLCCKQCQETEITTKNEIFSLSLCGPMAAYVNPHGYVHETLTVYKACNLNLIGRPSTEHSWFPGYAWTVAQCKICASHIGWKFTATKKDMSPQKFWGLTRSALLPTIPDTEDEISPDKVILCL

SMILES: COc1cc2c(NC3CCN(CCCC(=O)NCCCCCCCCCNc4cccc5c4C(=O)N(C4CCC(=O)NC4=O)C5=O)CC3)nc(C3CCCCC3)nc2cc1OCCCN1CCCC1 (stereo not given)
Activity [2]: inactive | inhibition [1]: Active

SMILES: N=C(NCCCCCCNC(=N)NC(=N)Nc1ccc(Cl)cc1)NC(=N)Nc1ccc(Cl)cc1
Activity [5]: Active

SMILES: COc1cc2c(NC3CCN(CCCC(=O)NCCCCCCCCNc4cccc5c4C(=O)N(C4CCC(=O)NC4=O)C5=O)CC3)nc(C3CCCCC3)nc2cc1OCCCN1CCC(F)(F)CC1 (stereo not given)
Activity [7]: inactive

SMILES: COc1cc2c(NC3CCN(CCCC(=O)NCCCCCCCCNc4cccc5c4C(=O)N(C4CCC(=O)N(C)C4=O)C5=O)CC3)nc(C3CCCCC3)nc2cc1OCCCN1CCCC1 (stereo not given)
Activity [7]: inactive

SMILES: COc1cc2c(NC3CCN(CCCC(=O)NCCCCCCCCCCNc4cccc5c4C(=O)N(C4CCC(=O)NC4=O)C5=O)CC3)nc(C3CCCCC3)nc2cc1OCCCN1CCCC1 (stereo not given)
Activity [2]: inactive | inhibition [1]: Active

Further lines, results first:

inhibition [1]: Active
SMILES: COc1cc2c(NC3CCN(CCCC(=O)NCCCCCCCCOc4cccc5c4C(=O)N(C4CCC(=O)NC4=O)C5=O)CC3)nc(C3CCCCC3)nc2cc1OCCCN1CCCC1 (stereo not given)

Activity [2]: inactive | inhibition [1]: Active
SMILES: COc1cc2c(NC3CCN(CCCC(=O)NCCCCCCCNc4cccc5c4C(=O)N(C4CCC(=O)NC4=O)C5=O)CC3)nc(C3CCCCC3)nc2cc1OCCCN1CCCC1 (stereo not given)

Activity [3]: inactive | Activity [4]: inactive
SMILES: O=C1CCC(N2C(=O)c3ccccc3C2=O)C(=O)N1 (stereo not given)

inhibition [1]: Active
SMILES: COc1cc2c(NC3CCN(CCCC(=O)NCCOCCOCCNc4cccc5c4C(=O)N(C4CCC(=O)NC4=O)C5=O)CC3)nc(C3CCCCC3)nc2cc1OCCCN1CCCC1 (stereo not given)

Activity [6]: inactive
SMILES: COc1cc2c(NC3CCN(C(=O)CCC(=O)NCCCCCCCCNc4cccc5c4C(=O)N(C4CCC(=O)NC4=O)C5=O)CC3)nc(C3CCCCC3)nc2cc1OCCCN1CCCC1 (stereo not given)

inhibition [1]: Active
SMILES: COc1cc2c(NC3CCN(CCCC(=O)NCCCCCCCCNc4ccc5c(c4)C(=O)N(C4CCC(=O)NC4=O)C5=O)CC3)nc(C3CCCCC3)nc2cc1OCCCN1CCCC1 (stereo not given)
